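Test compounds were applied to cells in 96-well plates for 48 hours at 5 doses. The concentration for 50% growth inhibition is given as GI50. TGI denotes the concentration required for complete inhibition of growth.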 Some results are limits rather than exact numbers.

Common to all, as to assay: NCI-60 cell line screen, 48 h
For experiment [1], the system named is NCI-H226 lung.
Experiment [2] concerns SK-MEL-2 melanoma.
Experiment [3] concerns RPMI-8226 leukemia.
Experiment [4] concerns HCT-15 colon.
In experiment [5] the test system is NCI-H23 lung.
Experiment [6] relates to K-562 leukemia.
The subject of experiment [7] is IGROV1 ovarian.
Experiment [8] relates to M14 melanoma.
In experiment [9] the test system is HT29 colon.
Experiment [10] deals with A549 NSCLC.

Consider `C=CC1C(CC2OC(CO)C(O)C(O)C2O)OC=C2C(=O)OCCC21O` (centres undefined), for which the GI50 is 20.9 µM in [1]; 22.4 µM in [2]; 2.32 µM in [3]; 19.5 µM in [4]; 24.9 µM in experiment [5]; 6.6 µM in experiment [6]. Further, the GI50 is 8.36 µM in experiment [7], 22.3 µM in experiment [8], 2.23 µM in [9] and 18.5 µM in experiment [10]. The TGI in [1] was 76.5 µM; in [2] it was 71.4 µM; in experiment [3], 8.43 µM; in [4], 49.9 µM; in experiment [5], 61.9 µM; in [6] it was > 100 µM. Further, the TGI in [7] worked out at 53.1 µM; in experiment [8], 65.7 µM; in experiment [9], 8.02 µM; in experiment [10], 48.9 µM.
With `CCC(C)(O)c1cn(-c2ccc(Cl)cc2)nn1` (centres undefined), the TGI in experiment [1], in experiment [2], in experiment [3], in experiment [4], in [5] and in [6] was > 100 µM throughout. The TGI in experiment [7], in [8], in experiment [9] and in experiment [10] was > 100 µM each time.
For the compound `CC1CCCC(C#N)(NOC2=NCCN2)C1` (centres undefined), the GI50 in experiment [1] was 17.2 µM; in [2] it was 57.3 µM; in experiment [3], 38 µM; in experiment [4], 44.6 µM; in [5], 35.3 µM; in experiment [6] it was 17.4 µM. Further, the GI50 in experiment [7] was 30.4 µM; in [8] it was 84.1 µM; in experiment [9], 92.2 µM; in [10] it was 63.4 µM. For the same compound, the TGI is 37 µM in [1]; > 100 µM in [2]; > 100 µM in [3]; > 100 µM in experiment [4]; > 100 µM in [5]; 61.5 µM in experiment [6]. Also, the TGI in experiment [7], in experiment [8], in [9] and in experiment [10] was > 100 µM in each case.
On to `O=C1C(Cl)=C(Cl)C(=O)N1c1ccc(Cl)c(Cl)c1Cl`, for which the TGI in experiment [1] was > 100 µM; in [2], > 100 µM; in experiment [3], > 100 µM; in experiment [4] it was > 100 µM; in experiment [5], > 100 µM; in experiment [6] it was 91.8 µM. The TGI in experiment [7], in experiment [8], in experiment [9] and in experiment [10] was > 100 µM each time.
As for `COc1c(OC)c(OC)c2c(=O)cc(-c3ccc(OC(C)C)cc3)oc2c1OC`, the TGI in experiment [1] is 32.3 µM; in [2] it was > 50.7 µM; in experiment [3], 23.7 µM; in experiment [4], > 54.8 µM; in experiment [5], > 56.5 µM; in experiment [6], > 100 µM. Also, the TGI in experiment [7] is > 56.8 µM; in [8] it was 43.1 µM; in experiment [9] it was > 49.4 µM; in experiment [10] it was > 51.1 µM.
With `Cc1c(Nc2nccc3cc(CN4CC[C@@H](O)C4)cnc23)cccc1-c1cccc(-c2nc3cc(CN4CC[C@@H](C(=O)O)C4)cc(C#N)c3o2)c1C`, the GI50 was > 100 µM in experiment [1]; > 100 µM in experiment [2]; 2.26 µM in experiment [3]; 3.79 µM in experiment [4]; 12 µM in experiment [5]; 1.44 µM in [6]. Further, the GI50 is 8.45 µM in [7], 5.82 µM in experiment [8], 2.09 µM in experiment [9] and 5.33 µM in experiment [10]. Also, the TGI in experiment [1] is > 100 µM; in [2], > 100 µM; in [3], 26.5 µM; in experiment [4], 15.8 µM; in experiment [5] it was 27.1 µM; in experiment [6], > 100 µM. The TGI in experiment [7] was > 100 µM; in experiment [8], 20.3 µM; in experiment [9], 4.64 µM; in experiment [10], 19.1 µM.
In the case of `CCN1CCN(c2cc(C(=O)Nc3cccc(Nc4ccc5c(OC)cccc5n4)c3)cc(C(F)(F)F)c2)CC1`, the GI50 in experiment [1] was 2.85 µM; in experiment [2], 5.3 µM; in experiment [3], 1.2 µM; in experiment [4] it was 0.797 µM; in experiment [5] it was 3.41 µM; in [6] it was 0.91 µM. Further, the GI50 in experiment [7] is 0.924 µM; in experiment [8], 0.668 µM; in [9], 0.572 µM; in experiment [10], 1.05 µM. The TGI in experiment [1] was determined as 25.4 µM; in [2], 11 µM; in experiment [3], 5.32 µM; in [4], 2.26 µM; in experiment [5], 8.12 µM; in [6], 2.77 µM. The TGI in experiment [7] was found to be 5.23 µM; in [8], 1.65 µM; in experiment [9], 1.21 µM; in experiment [10] it was 5.28 µM.
As to `COC(=O)/C(C#N)=C1\CCC(OC)N1C` (centres undefined), the TGI in experiment [1], in experiment [2], in experiment [3], in [4], in [5] and in [6] was > 100 µM in each case. Moreover, the TGI in experiment [7], in [8], in [9] and in experiment [10] was > 100 µM in each case.
Regarding `Cc1ccc(N2C(=O)/C(=C/c3ccc(N(CCC#N)CCC#N)cc3)N=C2COc2ccc(Cl)cc2Cl)cc1`, the TGI in [1], in experiment [2], in experiment [3], in [4], in experiment [5] and in experiment [6] was > 100 µM each time. Besides, the TGI in experiment [7], in [8], in [9] and in experiment [10] was > 100 µM each time.
With `CN1CCN(CCCOc2ccc3nc(Nc4ccc(F)c(F)c4)ccc3c2)CC1`, the GI50 was 10.8 µM in experiment [1]; 1.91 µM in experiment [2]; 1.7 µM in experiment [3]; 1.29 µM in experiment [4]; 3.15 µM in experiment [5]; 1.37 µM in [6]. Also, the GI50 was 3.11 µM in experiment [7], 1.74 µM in experiment [8], 0.822 µM in experiment [9] and 2.19 µM in experiment [10]. Also, the TGI in experiment [1] stood at 29.9 µM; in [2], 3.8 µM; in experiment [3] it was 6.3 µM; in experiment [4], 3.33 µM; in [5], 13.2 µM; in [6], 5.25 µM. Moreover, the TGI in experiment [7] came out at 9.01 µM; in experiment [8] it was 3.68 µM; in experiment [9] it was 2.32 µM; in [10], 5.26 µM.
Consider `COc1cc2c(cc1OC)C(C(CBr)CBr)N(C1CCCC1)CC2` (centres undefined), for which the TGI in experiment [1], in experiment [2], in experiment [3], in [4], in experiment [5] and in [6] was > 100 µM each time. In addition, the TGI in [7], in [8], in experiment [9] and in experiment [10] was > 100 µM each time.
In the case of `CC(/C=C/C(=O)c1sc(C(N)=S)nc1C)=C\c1ccccc1`, the TGI in experiment [1] is > 100 µM; in experiment [2], > 100 µM; in experiment [3], 44.6 µM; in [4] it was > 100 µM; in experiment [5], > 100 µM; in experiment [6], > 100 µM. Further, the TGI in experiment [7], in [8], in experiment [9] and in experiment [10] was > 100 µM each time.
For `O=C1NC(=O)C(c2cccc(Cl)c2)=C1Nc1ccc(Cl)c(C(=O)O)c1`, the GI50 in [1], in experiment [2], in experiment [3], in [4], in [5] and in experiment [6] was > 25 µM throughout. Moreover, the GI50 in experiment [7], in [8], in experiment [9] and in experiment [10] was > 25 µM each time. In addition, the TGI in experiment [1], in experiment [2], in experiment [3], in experiment [4], in [5] and in [6] was > 25 µM in each case. Besides, the TGI in experiment [7], in experiment [8], in experiment [9] and in experiment [10] was > 25 µM throughout.
For `CC(C)C[C@H](NC(=O)Cn1cccc(CNC(=O)c2ccccc2)c1=O)B(O)O`, the GI50 in experiment [1] is 0.202 µM; in [2], 0.384 µM; in [3], 0.352 µM; in [4] it was 4.7 µM; in experiment [5] it was 1.05 µM; in experiment [6], 1.3 µM. The GI50 in experiment [7] is 4.01 µM; in experiment [8], 0.27 µM; in experiment [9], 0.352 µM; in experiment [10], 4.54 µM. The TGI in experiment [1] was 0.457 µM; in [2], 2.79 µM; in experiment [4], 37.3 µM; in experiment [5], > 100 µM; in experiment [6], > 100 µM; in experiment [7] it was 45.8 µM. Moreover, the figures for the TGI in experiment [8], in [9] and in experiment [10] were 1.42 µM, 11.5 µM and > 100 µM, respectively.
